Source: patent publication US11299512B2 (priority 2016, dated 2022)
Like-named read-outs stand apart in the source and are kept apart here.

Test system: THP1 luciferase reporter cells
Assay: cells
Assay type: cell-based
[1] = Homo sapiens, THP-1, 16 h, read-out: THP1-ISG-Luc with PFO, EC50
[2] = Homo sapiens, THP-1, 16 h, read-out: THP-ISG-Luc without PFO, EC50
[3] = 16 hours, read-out: THP1-ISG-Luc with PFO, EC50
[4] = 16 hours, read-out: THP-ISG-Luc without PFO, EC50

Row | Compound | EC50 [1] | EC50 [2] | other results
1 | Nc1nc2c(ncn2[C@@H]2O[C@@H]3COP(=O)(O)OC4C(O)[C@H](n5ccc6c(N)ncnc65)O[C@@H]4COP(=O)(O)OC2C3O)c(=O)[nH]1 (stereo in doubt) [Example E5] | > 1 µM | > 100 µM | 
2 | C#CCOC1[C@H]2OP(=O)(O)OC[C@H]3O[C@@H](n4cnc5c(=O)[nH]c(N)nc54)[C@@H](OP(=O)(O)OC[C@H]2O[C@H]1n1cnc2c(N)ncnc21)C3O (stereo partly shown) [EA3] | > 1 µM | > 100 µM | 
3 | Nc1ncnc2c1ccn2[C@@H]1O[C@@H]2COP(=O)(S)OC3C(O)[C@@H](COP(=O)(O)OC2C1O)O[C@H]3n1ccc2c(N)ncnc21 (stereo partly shown) [EC6] | > 1 µM | > 100 µM | 
4 | Nc1ncnc2c1ccn2[C@@H]1O[C@@H]2COP(=O)(S)OC3C(O)[C@@H](COP(=O)(O)OC2C1O)O[C@H]3n1ccc2c(N)ncnc21 (stereo partly shown) [EC7] |  |  | EC50 [3]: > 1 µM; EC50 [4]: > 100 µM
5 | Nc1nc2c(ncn2[C@@H]2O[C@@H]3COP(=O)(S)OC4C(O)[C@H](n5nnc6c(N)ncnc65)O[C@@H]4COP(=O)(S)OC2C3O)c(=O)[nH]1 (stereo partly shown) [Example E19] | > 1 µM | > 100 µM | 
6 | Nc1nc2c(ccn2[C@@H]2O[C@@H]3COP(=O)(S)OC4[C@@H](COP(=O)(S)O[C@H]2C3O)O[C@@H](n2ccc3c(N)ncnc32)[C@H]4O)c(=O)[nH]1 (stereo partly shown) [Example E23] | < 0.1 µM | < 30 µM | 
7 | Nc1nc2c(ncn2[C@@H]2O[C@@H]3COP(=O)(O)O[C@@H]4C(O)[C@H](n5cnc6c(N)ncnc65)O[C@@H]4COP(=O)(N4CCOCC4)OC2[C@H]3O)c(=O)[nH]1 (stereo partly shown) [Example E24] |  |  | EC50 (Homo sapiens, THP-1, 16 hours, read-out: THP1-ISG-Luc with PFO, EC50): 0.1 to 1 µM; EC50 (Homo sapiens, THP-1, 16 hours, read-out: THP-ISG-Luc without PFO, EC50): < 30 µM
8 | EC23 |  |  | EC50 [3]: > 1 µM; EC50 [4]: > 100 µM
